Laboratory results: patent publication US20240299486A1, “ADDRESSING INJECTION SITE REACTIONS ASSOCIATED WITH THE ADMINISTRATION OF ELAMIPRETIDE” (STEALTH BIOTHERAPEUTICS INC., priority 2022, published 2024)

Assays:
healthy subjects = test: Phase 1 crossover study: clinically assessed injection site reactions
Experimental: (§1) • This Phase 1, open-label, 6-arm crossover study included 10 healthy subjects ≥18 and ≤65 years of age. • All subjects received 60 mg of SQ elamipretide to alternating quadrants of the abdomen on each of 6 occasions (FIG. 3), with or without the interventions listed in Table 2. • For each treatment arm, ISR clinical and self-assessments were performed pre-elamipretide administration and at 0.5, 1, 2, 4, 6, 12, 24, and 48 hours after each elamipretide dose. • Blood samples for plasma concentrations of elamipretide and its metabolites were also collected pre-dose and at 0.25, 0.5, 1, 2, 4, and 6 hours post-elamipretide dose. • Primary endpoints consisted of comparisons of the grading from the clinical assessments and the self-assessments of each ISR parameter following administration of elamipretide with each separate intervention versus that of elamipretide alone. • Secondary endpoints consisted of comparison of various pharmacokinetic (PK) parameters and adverse events following administration of elamipretide with each separate intervention versus that of elamipretide alone.
After the screening period (up to 28 days) in this phase 1, open-label, 4-week, 6-part, crossover study, all eligible subjects received 60 mg (0.75 mL) of SC elamipretide to alternating quadrants of the abdomen on each of 6 occasions, with or without potential ISR interventions. The first treatment arm (Arm 1) commenced on Day 1 with administration of elamipretide only, followed by the remaining treatment arms (Arms 2-6) with the following potential mitigations: mometasone furoate, 0.1% ointment, applied once under a hydrocolloid occlusive dressing (DuoDERM Extra Thin) 7 days prior to elamipretide administration (Arm 2); ice application at the elamipretide injection site 5 minutes pre- and post-drug administration (Arm 3); tacrolimus 0.1% ointment applied 15 minutes pre-drug dosing (Arm 4); doxepin 5% cream applied 15 minutes pre-elamipretide administration (Arm 5); and diphenhydramine 50 mg orally taken 2 hours prior to administration (Arm 6). For each treatment arm, blood samples for plasma concentrations of elamipretide and its metabolites were collected pre-dose and at 0.25, 0.5, 1, 2, 4, and 6 hours post-elamipretide dose. Vital signs were recorded pre-dose and at 0.5 and 6 hours post-elamipretide administration. ISR clinical and self-assessments were performed pre-elamipretide administration and at 0.5, 1, 2, 4, 6, 12, 24, and 48 hours after each elamipretide dose. Injection sites were photographed at 0.5, 1, 2, 4, and 12 hours post-elamipretide dose.
The primary endpoints of this study were comprised of the following efficacy measures: clinical assessments and subject self-assessments. Specifically, the primary endpoints consisted of comparisons of the grading of each ISR parameter following administration of elamipretide with each separate intervention versus the grading of each ISR parameter following administration of elamipretide alone. For clinical assessments, the clinical staff used a standard procedure adapted from the Division of Aids Table for Grading the Severity of Adult and Pediatric Adverse Events to score pain, erythema, induration, and pruritus using a 4-point scale based on severity (0=None, 1=Mild, 2=Moderate, 3=Severe, 4=Potentially Life Threatening). The self-assessments were based on a questionnaire to determine how bothered the patient was following each injection of elamipretide and included the following parameters: pain, burning sensation, cold sensation, itching, redness, swelling, and bruising.
All statistical analyses were performed using SAS GRID Linux/SAS Studio (Version 9.4, or higher). PK parameters for elamipretide and its metabolites, M1 and M2, were summarized using descriptive statistics.

[1] = Phase 1 crossover study: pharmacokinetics of elamipretide and metabolites M1, M2; conditions: human, in vivo, 60 mg
Experimental: as §1
After the screening period (up to 28 days) in this phase 1, open-label, 4-week, 6-part, crossover study, all eligible subjects received 60 mg (0.75 mL) of SC elamipretide to alternating quadrants of the abdomen on each of 6 occasions, with or without potential ISR interventions. […]

[2] = 60 mg SQ elamipretide with or without the intervention, across all timepoints, all participants, n = 80

In the case of `Cc1cc(O)cc(C)c1C[C@H](NC(=O)[C@H](N)CCCNC(=N)N)C(=O)N[C@@H](CCCCN)C(=O)N[C@@H](Cc1ccccc1)C(N)=O` (stereo in doubt) [Elamipretide, H-D-Arg-2′,6′Dmt-Lys-Phe-NH2], the “Clinically assessed Erythema or redness, (%) of Reported Reactions” value (healthy subjects; [2]) is reported as “(26.3) %”, the “Clinically assessed Erythema or redness, Number of Reported Reactions” value (healthy subjects; [2]) is reported as 21 and the “Clinically assessed Induration or swelling, (%) of Reported Reactions” value (healthy subjects; [2]) is reported as “(20.0) %”. The “Clinically assessed Induration or swelling, Number of Reported Reactions” value (healthy subjects; [2]) was 16, the “Clinically assessed Pain or tenderness, (%) of Reported Reactions” value (healthy subjects; [2]) was “(11.3) %” and the “Clinically assessed Pain or tenderness, Number of Reported Reactions” value (healthy subjects; [2]) was 9. For the same compound, the “Clinically assessed Pruritis, (%) of Reported Reactions” value (healthy subjects; [2]) was “(17.5) %”, the “Clinically assessed Pruritis, Number of Reported Reactions” value (healthy subjects; [2]) was 14 and the “time post-dose after which bruising appeared to form” value (healthy subjects; injection site photographs, in those affected) was over 12 h. For the same compound, the “time post-dose at which ISRs captured on the photographs were resolving” value (healthy subjects; injection site photographs, with the exception of bruising) was 4 h and the Tmax [1] was 30 min.
